The series in a line: water solubility (comparative statement). In kind it is physicochemical. Conditions: compared to PC-JF549-NHS.

`COCCOCCOCCOCCNC(=O)c1cc2ccc(N3C(=O)c4ccc(C(=O)ON5C(=O)CCC5=O)cc4C34c3ccc(N5CCC5)cc3[Si](C)(C)c3cc(N5CCC5)ccc34)cc2oc1=O` [PC-JF646-PEG-NHS, 2,5-dioxopyrrolidin-1-yl 2′-(3-((2,5,8,11-tetraoxatridecan-13-yl)carbamoyl)-2-oxo-2H-chromen-7-yl)-3,7-di(azetidin-1-yl)-5,5-dimethyl-3′-oxo-5H-spiro[dibenzo[b,e]siline-10,1′-isoindoline]-6′-carboxylate]: the water solubility result is recorded as “better water solubility”.

Source of the values: patent publication US12360106B2, “Photochromic xanthene fluorophores and their utility in live-cell imaging beyond the diffraction limit” (HOWARD HUGHES MEDICAL INSTITUTE, priority 2017, dated 2025).
